In patent US20240109863A1, “2-PYRIDONE DERIVATIVE, AND PREPARATION METHOD THEREFOR AND PHARMACEUTICAL APPLICATION THEREOF” (KPC PHARMACEUTICALS, INC, priority 2020, published 2024):

How the values were obtained:
[1] = data of phase II, cited from earlier work
[2] = preclinical toxicology and data of phase I; cited from earlier work
THRβ = biological target: T1, THRβ (Homo sapiens, UniProt P10828); assay: THRβ binding assay (time-resolved FRET coactivator peptide recruitment); assay type: biochemical; conditions: THRβ-LBD/RXRα, SRC2-2 coactivator peptide recruitment, 4 hours at room temperature
T1 construct: RXRα and THRβ-LBD Eu-anti-GST antibody with GST tag
Method: Experimental methods: In vitro analysis of the agonistic effect of compounds on THRβ was performed using time-resolved fluorescence resonance energy transfer coactivator peptide recruitment assays. The assay used biotin-SRC2-2 coactivator peptide, streptavidin-d2, RXRα and THRβ-LBD Eu-anti-GST antibody with GST tag. Eu-anti-GST antibody indirectly labeled THRβ-LBD by binding to the GST tag. Streptavidin-d2 indirectly labeled the SRC2-2 coactivator peptide by binding to the biotin tag. In the presence of RXRα, THRβ-LBD can form heterodimer THRβ-LBD/RXRα with it. […] According to the effect of different concentrations of the compound on the activity of THRβ, the agonistic ability of the compound can be evaluated.
The detailed procedure is as follows: • a. 100× reference compound or compound was prepared with DMSO, and equally diluted by 1:3. • b. 100× gradiently diluted reference compound or compound was diluted with 1× reaction buffer to 4×, which was then added to an assay plate. • c. A mixed solution of 4× THRβ-LBD and 4× RXRα was prepared with 1× reaction buffer, and added to the assay plate. • d. A mixed solution of 2× biotin-SRC2-2, 2× Eu-anti-GST, and 2× streptavidin-d2 was prepared with 1× reaction buffer, and added to the assay plate. • e. The assay plate was centrifuged at 1000 rpm for 1 min, and incubated at room temperature in the dark for 4 hours. • f.

THRα = biological target: T2, THRα (Homo sapiens, UniProt P10827); assay: THRα binding assay (as the THRβ assay, THRβ replaced with THRα); assay type: biochemical; conditions: for EC50: THRα in place of THRβ; for THRα/β selectivity (fold): ratio of THRα EC50 to THRβ EC50
T2 construct: GST

[3] = In vivo pharmacokinetics in mice; conditions: male ICR mice, intragastric, single dose 3 mg/Kg; for Area of curve / half-life: plasma; for half-life: mouse, po
Method: Mice were used as test animals, and intragastrically administered with the compounds of Example 1 and Example 46, and then the drug concentrations in plasma at different time points were measured. The pharmacokinetic performance of the compounds of the present invention in mice was studied, and the drug metabolism characteristics were evaluated. In the example, healthy adult male ICR mice with similar body weight were selected, and orally administered with drugs once at a dose of 3.0 mg/kg. Whole blood was collected before the administration and 1 h, 2 h, 4 h, 6 h, 8 h, 12 h, 24 h and 48 h after the administration, respectively. LC/MS/MS method was established to determine the concentrations of prototype drugs in plasma samples. The main pharmacokinetic parameters were calculated using WinNonlin 6.3 NCA model.
Experimental drug: the compounds obtained in Example 1 and Example 46.
Experimental animals: 9 healthy adult male ICR mice, equally divided into 3 groups, 3 mice in each group, purchased from Shanghai Xipu'er-Bikai Experimental Animal Co., Ltd., with an animal certificate number: SOCK (Shanghai) 2018-0006 2018 0006 010467.
Preparation of drug: A certain amount of the compounds of Example 1 and Example 46 were accurately weighed, put into a 15 ml sample tube, wetted by 5 μL of Tween 80, and then added with 5.2 mL of 2% hydroxypropyl methylcellulose (HPMC) solution. The mixture was sonicated and mixed by vortex to obtain a homogeneous suspension. The drugs were freshly prepared just before use.
Administration: After fasting overnight, ICR mice were intragastrically administered with the drugs at a dose of 3.0 mg/kg.
Operation: The mice were intragastrically administered with the compounds of Example 1 and Example 46. Whole blood was collected before the administration and 1 h, 2 h, 4 h, 6 h, 8 h, 12 h, 24 h and 48 h after the administration, then anticoagulated with heparin sodium, and centrifuged at 4° C. for 5 min. Plasma was separated, and stored at −80° C. for determination.
Determination of the contents of the compounds to be tested in the mice plasma after intragastric administration of drugs: 12.5 μL of the mice plasma to be tested at each time point after the administration of the compounds of Example 1 and Example 46 were taken respectively, mixed in pairs, and added with 100 μL of the internal standard solution and 125 μL of methanol. The mixture was mixed by vortex for 2 min, and centrifuged at 13000 rpm for 10 min at 4° C. The supernatant was taken for LC-MS/MS analysis.

T2 sequence (P10827 1-410 isoform P10827-2, other chains not shown): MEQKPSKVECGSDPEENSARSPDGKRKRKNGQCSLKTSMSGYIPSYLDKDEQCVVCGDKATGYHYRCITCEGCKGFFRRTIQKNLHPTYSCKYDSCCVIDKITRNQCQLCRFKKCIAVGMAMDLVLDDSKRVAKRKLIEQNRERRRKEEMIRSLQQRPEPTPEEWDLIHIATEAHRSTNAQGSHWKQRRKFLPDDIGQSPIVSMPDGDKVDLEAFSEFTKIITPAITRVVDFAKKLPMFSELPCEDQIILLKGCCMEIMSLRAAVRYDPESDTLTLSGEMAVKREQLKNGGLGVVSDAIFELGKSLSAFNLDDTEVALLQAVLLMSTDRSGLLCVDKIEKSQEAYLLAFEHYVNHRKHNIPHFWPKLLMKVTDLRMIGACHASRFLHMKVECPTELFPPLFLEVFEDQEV
T2 sequence (P19793 whole entry partner, other chains not shown): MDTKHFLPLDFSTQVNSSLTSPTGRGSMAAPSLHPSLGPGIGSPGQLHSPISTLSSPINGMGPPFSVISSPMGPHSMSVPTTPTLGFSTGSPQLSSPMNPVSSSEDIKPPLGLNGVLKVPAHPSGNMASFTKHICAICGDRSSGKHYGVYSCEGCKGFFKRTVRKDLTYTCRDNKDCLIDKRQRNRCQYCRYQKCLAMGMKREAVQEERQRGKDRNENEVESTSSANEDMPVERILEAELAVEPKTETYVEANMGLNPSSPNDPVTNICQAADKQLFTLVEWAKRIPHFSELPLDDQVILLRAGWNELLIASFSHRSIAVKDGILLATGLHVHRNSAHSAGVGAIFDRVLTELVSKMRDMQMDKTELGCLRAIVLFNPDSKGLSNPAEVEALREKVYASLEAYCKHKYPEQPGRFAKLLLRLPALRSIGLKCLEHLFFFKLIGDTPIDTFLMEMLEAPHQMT
T1 sequence (P10828 217-461 limits assumed, other chains not shown): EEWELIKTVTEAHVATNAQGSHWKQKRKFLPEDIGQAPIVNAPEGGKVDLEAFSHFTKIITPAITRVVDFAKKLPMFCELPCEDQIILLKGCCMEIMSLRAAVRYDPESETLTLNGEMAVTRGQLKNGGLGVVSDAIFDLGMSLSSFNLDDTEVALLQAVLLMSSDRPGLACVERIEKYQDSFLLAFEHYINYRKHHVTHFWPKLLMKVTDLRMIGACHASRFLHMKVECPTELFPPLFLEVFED
T1 sequence (P19793 whole entry partner, other chains not shown, the tested form may be a part): as the sequence (P19793 whole entry partner, other chains not shown) above

| EC50 (THRβ) [nM] | EC50 (THRα) [nM] | THRα/β selectivity (fold) (THRα) | Peak plasma concentration [3] [ng/mL] | Area of curve [3] [ng·h/mL] | half-life [3] [h] | SMILES | severe cases ([1]; not related to treatment) | adverse effects (AEs) mild [1] [%] | adverse effects (AEs) moderate [1] [%] | LDL cholesterol, triglycerides and lipoproteins [2] |
| --- | --- | --- | --- | --- | --- | --- | --- | --- | --- | --- |
| – | – | – | – | – | – | CC(C)c1cc(Oc2c(Cl)cc(-n3nc(C#N)c(=O)[nH]c3=O)cc2Cl)n[nH]c1=O [Control compound 2, MGL-3196] | 3 | 85 | 15 | significantly reduce |
| 11 | 49 | 4.5 | 54.0 | 535.2 | 5.6 | CC(C)n1cc(Oc2c(Cl)cc(-n3nc(C#N)c(=O)[nH]c3=O)cc2Cl)ccc1=O [Example 1, 2-(3,5-Dichloro-4-((1-isopropyl-6-oxo-1,6-dihydropyridin-3-yl)oxy)phenyl)-3,5-dioxo-2,3,4,5-tetrahydro-1,2,4-triazine-6-carbonitrile] | – | – | – | – |
| 102 | 930 | 9.1 | 92.37 | 1774.03 | 11.2 | CC1CCc2c(Oc3c(Cl)cc(-n4nc(C#N)c(=O)[nH]c4=O)cc3Cl)ccc(=O)n21 (stereo not shown) [Example 46, 2-(3,5-dichloro-4-((3-methyl-5-oxo-1,2,3,5-tetrahydroindoline-8-yl)oxy)phenyl)-3,5-dioxo-2,3,4,5-tetrahydro-1,2,4-triazine-6-carbonitrile] | – | – | – | – |
